Laboratory results reported in US12503463B2, “Aliphatic acid amide derivative” (Sumitomo Pharma Co., Ltd., priority 2019, dated 2025).

Columns and labels:
[1] = Test 3-1: metabolic stability test in human hepatic microsome; assay type: in vitro ADME; conditions: Test 3-1: microsome 0.1 mg/mL, test compound 0.1 μmol/L, 37° C., 30 minutes
Procedure: Test 3-1: Metabolic Stability Test in Human Hepatic Microsome
(§1) The metabolic stability of the present compound in human hepatic microsome was evaluated as mentioned below. Human hepatic microsome was obtained from Xenontech. Human hepatic microsome, NADPH, and each test compound were mixed in 25 mmol/L phosphate buffer solution (pH 7.4) to reach the following concentrations as shown below, and the mixture was incubated at 37° C. for 30 minutes. • Human hepatic microsome: 0.1 mg/mL • NAPDH: 3.2 mmol/L • Test compound: 0.1 μmol/L
The residual ratio of test compound in each sample after 30 minutes was measured by LC-MS, and the metabolic stability in human hepatic microsome was calculated from the following formula. Metabolic stability in human hepatic microsome(mL/min/mg protein)=−LN(residual ratio)/30/0.1

[2] = Test 3-2: metabolic stability test in human hepatic microsome (higher microsome concentration); assay type: in vitro ADME; conditions: Test 3-2: microsome 0.5 or 1.0 mg/mL, test compound 0.1 μmol/L, 30 or 60 minutes
Procedure: Test 3-2: Metabolic Stability Test in Human Hepatic Microsome
as §1, with “For more accurate evaluation of the metabolic stability in human hepatic microsome, the metabolic” for “The metabolic”, “evaluated at an appropriate concentration of human hepatic microsome” for “evaluated”, “for 60” for “for 30”, “microsome: 0.5 or 1.0” for “microsome: 0.1”
The residual ratio of a test compound in each sample after 30 or 60 minutes was measured by LC-MS, and the metabolic stability in human hepatic microsome was calculated from the following formula. Metabolic stability in human hepatic microsome(mL/min/mg protein)=−LN(residual ratio)/reaction time/concentration of human hepatic microsome

human D2 receptor = molecular target: T1, human D2 receptor (Homo sapiens, UniProt P14416); experiment: Test 1: binding activity for human D2 receptor ([3H]Spiperone, CHO cell membrane fraction); conditions: for D2 Ki/5-HT2A Ki / D2 Ki/5-HT7 Ki: ratio of Ki values
T1 construct: purchased PerkinElmer, Inc; host or cells: CHO cells (membrane fraction)
Procedure: (§2) Ki value was evaluated from dissociation constant which was calculated from saturated binding tests, and a substrate concentration, and it was used as an index for binding affinity.

human 5-HT7 receptor [3] = molecular target: T2, human 5-HT7 receptor (Homo sapiens, UniProt P34969); experiment: Test 2: antagonist activity for human 5-HT7 receptor (aequorin luminescence, CHO-K1 cells); assay type: cell-based; conditions: Gα16
Procedure: (§3) Test 2: Evaluation of Antagonist Activity for Human 5-HT2A Receptor and Human 5-HT7 Receptor
(§4) Aequorin, Gα 16 protein, and each receptor were transiently expressed in CHO-K1 cells (Chinese hamster ovary). The cells were cultivated in a CO2 incubator at 37° C. overnight, seeded into a 384-well plate, and stood at room temperature for 2 hours. Each compound dissolved in DMSO was added thereto, and changes in luminescence were measured by FDSS/μCELL drug discovery screening support system (Hamamatsu Photonics K.K.). As for antagonist activity, inhibitory activity of each compound was calculated by setting the luminescence level of wells to which 10 μmol/L endogenous ligand was added as 100%.

hERG channel = molecular target: T3, hERG channel (Homo sapiens, UniProt Q12809); experiment: Test 5: inhibitory activity for hERG channel (whole cell patch clamp, hERG-CHO cells); assay type: cell-based
T3 construct: host or cells: hERG-CHO cells
Procedure: Test 5: Evaluation of Inhibitory Activity for hERG Channel
Inhibitory activity of the present compound for hERG channel was measured by whole cell patch clamp method with an auto patch clamp system using CHO cells in which hERG channel involved in human rapidly activating delayed rectifier potassium current (IKr) was forcibly expressed.
hERG-CHO cells purchased from ChanTest Cop. were cultured in a CO2 incubator at 37° C., and dissociated from a flask with trypsin shortly before the measurement of hERG current to prepare a cell suspension.
The cell suspension, the extracellular fluid, the intracellular fluid, and the measurement plate were set in an auto patch clamp system, and hERG current was measured by whole cell patch clamp method. […] Each pulse interval was 15 seconds. The data analysis was carried out with Qube Assay Software (Sophion Sophion). The test was carried out by applying incrementally 4 concentrations of each test compound, and the average of the maximum peak tail currents which were obtained from the last 3 stimulations in each concentration was determined as the evaluated data.

human 5-HT7 receptor [4] = molecular target: T2, human 5-HT7 receptor; experiment: Test 1: binding activity for human 5-HT7 receptor ([3H]SB-269970, CHO cell membrane fraction)
Procedure: as §2

human 5-HT2A receptor [5] = molecular target: T4, human 5-HT2A receptor (Homo sapiens, UniProt P28223); experiment: Test 2: antagonist activity for human 5-HT2A receptor (aequorin luminescence, CHO-K1 cells); assay type: cell-based; conditions: Gα16
Procedure: as §3, §4

human 5-HT2A receptor [6] = molecular target: T4, human 5-HT2A receptor; experiment: Test 1: binding activity for human 5-HT2A receptor ([3H]Ketanserin, CHO cell membrane fraction)
Procedure: as §2

T1 sequence (P14416 whole entry): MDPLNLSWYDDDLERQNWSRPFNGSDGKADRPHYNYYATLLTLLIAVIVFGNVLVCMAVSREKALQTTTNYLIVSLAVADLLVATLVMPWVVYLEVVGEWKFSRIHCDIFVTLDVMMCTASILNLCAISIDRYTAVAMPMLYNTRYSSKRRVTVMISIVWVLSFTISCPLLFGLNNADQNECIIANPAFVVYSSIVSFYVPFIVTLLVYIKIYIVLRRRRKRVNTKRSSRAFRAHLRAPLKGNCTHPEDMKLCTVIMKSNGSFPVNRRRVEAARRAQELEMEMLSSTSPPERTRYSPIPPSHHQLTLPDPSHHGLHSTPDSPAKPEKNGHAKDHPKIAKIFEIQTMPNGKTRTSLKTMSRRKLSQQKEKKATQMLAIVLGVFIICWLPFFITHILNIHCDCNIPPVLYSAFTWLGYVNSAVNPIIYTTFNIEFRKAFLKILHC
T4 sequence (P28223 whole entry): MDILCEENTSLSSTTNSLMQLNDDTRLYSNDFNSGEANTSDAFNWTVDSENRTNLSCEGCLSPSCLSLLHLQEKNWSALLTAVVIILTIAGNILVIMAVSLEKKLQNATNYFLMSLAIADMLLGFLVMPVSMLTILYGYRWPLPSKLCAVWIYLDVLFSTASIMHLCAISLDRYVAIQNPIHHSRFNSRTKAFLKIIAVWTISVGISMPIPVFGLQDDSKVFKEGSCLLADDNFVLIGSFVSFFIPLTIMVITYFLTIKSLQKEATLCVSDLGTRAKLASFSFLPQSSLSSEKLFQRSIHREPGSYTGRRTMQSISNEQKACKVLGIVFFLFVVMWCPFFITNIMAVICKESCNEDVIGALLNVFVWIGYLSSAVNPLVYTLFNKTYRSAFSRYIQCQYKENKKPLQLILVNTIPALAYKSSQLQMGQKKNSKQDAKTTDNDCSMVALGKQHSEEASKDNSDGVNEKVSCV
T3 sequence (Q12809 whole entry): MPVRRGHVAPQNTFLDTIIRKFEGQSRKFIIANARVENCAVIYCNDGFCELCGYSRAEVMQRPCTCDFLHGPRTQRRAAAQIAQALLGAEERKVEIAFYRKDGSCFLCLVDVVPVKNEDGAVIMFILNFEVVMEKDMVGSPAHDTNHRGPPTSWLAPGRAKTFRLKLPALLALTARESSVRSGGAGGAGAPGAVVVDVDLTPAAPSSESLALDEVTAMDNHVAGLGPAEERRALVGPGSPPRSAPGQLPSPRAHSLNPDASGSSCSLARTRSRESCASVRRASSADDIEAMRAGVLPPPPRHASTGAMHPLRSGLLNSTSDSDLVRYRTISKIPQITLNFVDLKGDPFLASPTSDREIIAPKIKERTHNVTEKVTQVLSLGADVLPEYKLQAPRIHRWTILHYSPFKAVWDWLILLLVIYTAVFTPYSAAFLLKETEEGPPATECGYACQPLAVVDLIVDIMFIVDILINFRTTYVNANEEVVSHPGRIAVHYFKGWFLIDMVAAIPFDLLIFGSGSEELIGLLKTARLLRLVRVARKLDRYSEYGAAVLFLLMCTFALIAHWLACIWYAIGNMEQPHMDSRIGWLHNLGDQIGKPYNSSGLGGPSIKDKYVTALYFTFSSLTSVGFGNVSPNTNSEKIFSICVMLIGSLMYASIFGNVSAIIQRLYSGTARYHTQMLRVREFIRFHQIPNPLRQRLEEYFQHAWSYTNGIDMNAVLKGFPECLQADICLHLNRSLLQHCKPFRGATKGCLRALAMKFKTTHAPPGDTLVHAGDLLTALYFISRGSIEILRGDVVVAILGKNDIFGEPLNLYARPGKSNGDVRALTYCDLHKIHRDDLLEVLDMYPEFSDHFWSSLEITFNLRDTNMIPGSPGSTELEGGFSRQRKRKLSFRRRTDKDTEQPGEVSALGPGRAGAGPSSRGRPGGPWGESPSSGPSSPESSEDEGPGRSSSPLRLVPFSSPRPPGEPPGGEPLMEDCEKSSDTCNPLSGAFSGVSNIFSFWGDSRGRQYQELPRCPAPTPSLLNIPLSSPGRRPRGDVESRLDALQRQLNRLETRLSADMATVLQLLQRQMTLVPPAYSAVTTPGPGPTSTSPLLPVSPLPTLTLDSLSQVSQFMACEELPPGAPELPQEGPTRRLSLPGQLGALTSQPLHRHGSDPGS
T2 sequence (P34969 whole entry): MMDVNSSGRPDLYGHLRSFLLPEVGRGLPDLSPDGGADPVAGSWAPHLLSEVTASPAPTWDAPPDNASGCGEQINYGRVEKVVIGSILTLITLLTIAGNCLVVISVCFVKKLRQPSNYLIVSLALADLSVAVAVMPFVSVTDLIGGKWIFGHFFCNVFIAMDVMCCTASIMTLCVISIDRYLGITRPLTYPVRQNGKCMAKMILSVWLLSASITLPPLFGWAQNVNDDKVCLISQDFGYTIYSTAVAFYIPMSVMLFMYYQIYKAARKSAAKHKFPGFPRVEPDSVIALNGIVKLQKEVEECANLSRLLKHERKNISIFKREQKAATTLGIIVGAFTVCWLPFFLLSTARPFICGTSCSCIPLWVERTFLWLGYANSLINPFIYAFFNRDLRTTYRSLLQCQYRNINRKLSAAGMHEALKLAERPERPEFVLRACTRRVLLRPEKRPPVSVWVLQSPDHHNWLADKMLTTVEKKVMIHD

In the case of `CCN(CCN1CCC(c2noc3cc(F)ccc23)CC1)C(=O)[C@H](C)O` [Example 16, (2S)-N-Ethyl-N-{2-[4-(6-fluoro-1,2-benzoisoxazol-3-yl)piperidin-1-yl]ethyl}-2-hydroxypropanamide], the “Metabolic stability in human hepatic microsome” value (shortened to “Metabolic stability”) [1] is reported as under 0.05 mL/min/mg protein and the “Metabolic stability” value [2] is reported as 0.018 mL/min/mg protein.

With `CCN(CCN1CCC(c2noc3cc(F)ccc23)CC1)C(=O)CCO` [Example 17, N-Ethyl-N-{2-[4-(6-fluoro-1,2-benzoisoxazol-3-yl)piperidin-1-yl]ethyl}-3-hydroxypropanamide] the “Metabolic stability” value [1] was under 0.05 mL/min/mg protein and the “Metabolic stability” value [2] was 0.0025 mL/min/mg protein.

In the case of `CCN(CCN1CCC(c2noc3cc(F)ccc23)CC1)S(=O)(=O)CCO` [Example 51, N-Ethyl-N-{2-[4-(6-fluoro-1,2-benzoisoxazol-3-yl)piperidin-1-yl]ethyl}-2-hydroxyethane-1-sulfonamide], the “Metabolic stability” value [1] is reported as under 0.05 mL/min/mg protein and the “Metabolic stability” value [2] is reported as 0.016 mL/min/mg protein.

With `CCN(CCN1CCC(c2noc3cc(F)ccc23)CC1)S(=O)(=O)C(C)CO` (stereo not drawn) [Example 52] the “D2 Ki/5-HT2A Ki” value (human D2 receptor) was over 34 and the “D2 Ki/5-HT7 Ki” value (human D2 receptor) was over 30.

For `CCN(CCN1CCC(c2noc3cc(F)ccc23)CC1)C(=O)C(O)CN` (stereo not drawn) [Example 65, 3-Amino-N-ethyl-N-{2-[4-(6-fluoro-1,2-benzoisoxazol-3-yl)piperidin-1-yl]ethyl}-2-hydroxypropanamide], the “D2 Ki/5-HT2A Ki” value (human D2 receptor) was 48, the “D2 Ki/5-HT7 Ki” value (human D2 receptor) was 26 and the “Metabolic stability” value [1] was under 0.05 mL/min/mg protein.

In the case of `CCN(CCN1CCC(c2noc3cc(F)ccc23)CC1)C(=O)C1CNCC1O` (stereo not drawn) [Example 66], the “Metabolic stability” value [1] is reported as under 0.05 mL/min/mg protein.

With `CCN(CCN1CCC(c2noc3cc(F)ccc23)CC1)C(=O)C1CNCCC1O` (stereo not drawn) [Example 67] the “Metabolic stability” value [1] was under 0.05 mL/min/mg protein.

With `CCN(CCN1CCC(c2noc3cc(F)ccc23)CC1)C(=O)[C@H]1NCC[C@H]1O` [Example 68] the “Metabolic stability” value [1] was under 0.05 mL/min/mg protein.

For `CCN(CCN1CCC(c2noc3cc(F)ccc23)CC1)C(=O)C1(O)CCCNC1` (stereo not drawn) [Example 69], the “Metabolic stability” value [1] was under 0.05 mL/min/mg protein.

In the case of `CCN(CCN1CCC(c2noc3cc(F)ccc23)CC1)C(=O)C1(O)CCNC1` (stereo not drawn) [Example 70], the “Metabolic stability” value [1] is reported as under 0.05 mL/min/mg protein.

With `CCN(CCN1CCC(c2noc3cc(F)ccc23)CC1)C(=O)C(O)CNC(C)=O` (stereo not drawn) [Example 71, 3-Acetamide-N-ethyl-N-{2-[4-(6-fluoro-1,2-benzoisoxazol-3-yl)piperidin-1-yl]ethyl}-2-hydroxypropanamide] the Ki (human D2 receptor; human D2 receptor, [3H]Spiperone) was 0.223 µM, the “D2 Ki/5-HT2A Ki” value (human D2 receptor) was 99 and the “D2 Ki/5-HT7 Ki” value (human D2 receptor) was 36. The “Metabolic stability” value [1] was under 0.05 mL/min/mg protein, the IC50 (human 5-HT7 receptor [3]) was 0.078 µM and the IC50 (hERG channel; hERG-CHO cells, auto patch clamp) was over 10 µM. The “hERG inhibitory IC50 (nmol/L)/5-HT7 Ki (nmol/L)” value (hERG channel; ratio) was over 1624, the Ki (human 5-HT7 receptor [4]) was 0.0062 µM and the IC50 (human 5-HT2A receptor [5]) was 0.025 µM. It also gave a Ki (human 5-HT2A receptor [6]) of 0.0022 µM.

With `CCN(CCN1CCC(c2noc3cc(F)ccc23)CC1)C(=O)C1(O)CCCN(C(C)=O)C1` (stereo not drawn) [Example 72] the “Metabolic stability” value [1] was 0.057 mL/min/mg protein.

For `CCN(CCN1CCC(c2noc3cc(F)ccc23)CC1)C(=O)C1CN(C(C)=O)CCC1O` (stereo not drawn) [Example 74], the “Metabolic stability” value [1] was under 0.05 mL/min/mg protein.

With `CCN(CCN1CCC(c2noc3cc(F)ccc23)CC1)C(=O)C1CN(C)CC1O` (stereo not drawn) [Example 75, N-Ethyl-N-{2-[4-(6-fluoro-1,2-benzoisoxazol-3-yl)piperidin-1-yl]ethyl}-4-hydroxy-1-methylpyrrolidine-3-carboxamide] the “Metabolic stability” value [1] was under 0.05 mL/min/mg protein.

For `CCN(CCN1CCC(c2noc3cc(F)ccc23)CC1)C(=O)C1CN(C)CCC1O` (stereo not drawn) [Example 76, N-Ethyl-N-{2-[4-(6-fluoro-1,2-benzoisoxazol-3-yl)piperidin-1-yl]ethyl}-4-hydroxy-1-methylpiperidine-3-carboxamide], the “Metabolic stability” value [1] was under 0.05 mL/min/mg protein.
